In paper PMC5308254, “Bioactivity of Natural and Engineered Antimicrobial Peptides from Venom of the Scorpions Urodacus yaschenkoi and U. manicatus” (Toxins, 2017):
No end group written: not given here.

Columns and labels:
L. grayi (DSM20601) = experiment: Growth inhibition assay (MIC), L. grayi; assay type: cell-based, Listeria grayi; conditions: 384-well plates, BHIB, 37 °C, peptide 0.015–250 µM; growth totally inhibited; average of n ≥ 3; dash = no inhibition
Description: (§1) The minimal inhibitory concentration (MIC) of each AMPs was determined against the Gram-positive bacteria Listeria monocytogenes (DSM20600), L. grayi (DSM20601), L. fleischmannii (DSM24998), Staphylococcus aureus (DSM2569) and Micrococcus luteus (DSM20030), and the Gram-negative species Escherichia coli (D31) and Pseudomonas aeruginosa (DSM50071). The scorpion peptides were prepared at concentrations of 0.015–250 μM. The assays were carried out in 384-well plates (Greiner Bio One, Frickenhausen, Germany) using Brain Heart Infusion Broth (BHIB) medium for Listeria spp., Tryptic Soy Broth (TSB) for S. aureus, and lysogeny broth (LB) for the others. The bacteria were cultivated overnight at either 37 °C (Listeria spp., S. aureus, E. coli and P. aeruginosa) or 30 °C (M. luteus) and subcultured in fresh media before the growth inhibition assays. Growth inhibition was measured as previously described.

[1] = test system: Micrococcus luteus (DSM20030); experiment: Growth inhibition assay (MIC), M. luteus; assay type: cell-based; conditions: 384-well plates, LB, 30 °C, peptide 0.015–250 µM; MIC = concentration at which growth was totally inhibited; average of n ≥ 3; dash = no inhibition
Description: as §1

[2] = test system: Listeria monocytogenes (DSM20600); experiment: Growth inhibition assay (MIC), L. monocytogenes; assay type: cell-based; conditions: 384-well plates, BHIB, 37 °C, peptide 0.015–250 µM; growth totally inhibited; average of n ≥ 3; dash = no inhibition
Description: as §1

pig erythrocytes = experiment: Hemolytic activity on pig erythrocytes; assay type: cell-based; conditions: 1 h at 37 °C; for HC10 (hemolytic concentration) / HC90 (hemolytic concentration) / HC50 (hemolytic concentration): 6.25–100 µM, absorbance 570 nm, non-linear fit; for HC10 (hemolytic concentration) / HC90 (hemolytic concentration): n ≥ 3; for HC50 (hemolytic concentration): n ≥ 3, n.c. (100) = not convergent at 100 µM; for percentage of hemolysis: 100 µM peptide (highest tested), 10% Triton X-100 = 100% hemolysis
Description: The hemolytic activity of each AMP was determined using pig erythrocytes. Serial dilutions (6.25–100 µM) of each AMP were prepared, and after incubation for 1 h at 37 °C the cells were centrifuged and the absorbance of the supernatant was measured at 570 nm using an Eon Microplate Spectrophotometer (BioTek Instruments, Winooski, VT, USA). Three independent experiments were carried out for each concentration in triplicate. PBS and 10% Triton X–100 were used as negative and positive controls, respectively. The percentage hemolysis was calculated using the formula 100((Apeptide–APBS)/(Atriton–APBS)). The AMP concentration causing 50% hemolysis (HC50) of the pig erythrocytes was determined by non-linear regression with the data fitted to the logistical sigmoidal equation, using GraphPad Prism v5.0 (GraphPad Software, San Diego, CA, USA) (Figure S2).

Escherichia coli (D31) = experiment: Growth inhibition assay (MIC), E. coli; assay type: cell-based; conditions: 384-well plates, LB, 37 °C, peptide 0.015–250 µM; growth totally inhibited; average of n ≥ 3; dash = no inhibition
Description: as §1

[3] = test system: L. fleischmannii (DSM24998); experiment: Growth inhibition assay (MIC), L. fleischmannii; assay type: cell-based, Listeria fleischmannii; conditions: 384-well plates, BHIB, 37 °C, peptide 0.015–250 µM; growth totally inhibited; average of n ≥ 3; dash = no inhibition
Description: as §1

[4] = Cytotoxicity, alamarBlue, BHK-21 cells; assay type: cell-based, hamster; conditions: hamster, 2 h at 37 °C, 0.1–100 µM, alamarBlue fluorescence, non-linear fit, concentration reducing viability by 50%, n ≥ 3, read-out: EC50 (effective cytotoxic concentration)
Description: (§2) Cytotoxicity was evaluated using the baby hamster kidney cell line (BHK-21) included in F2H®-Kit Basic (Chromotek, Planegg-Martinsried, Germany). The BHK-21 cells were grown in 25-cm^2 cell culture flasks (Greiner Bio One, Frickenhausen, Germany) containing Dulbecco’s Modified Eagle’s Medium (DMEM) supplemented with 4.5 g/L glucose, 110 mg/L sodium pyruvate and L-glutamine, and 10% fetal bovine serum (FBS), and were maintained in an NU-5810 incubator (ibs tecnomara, Fernwald, Germany) at 37 °C with a 5% CO2 atmosphere. The cells were subcultured at ~90% confluence by detaching with 0.25% trypsin and 0.03% EDTA (Sigma-Aldrich, St Louis, MO, USA). The AMPs were dissolved in water and diluted to final concentrations of 0.1, 1, 10 and 100 µM in DMEM.
(§3) BHK-21 cells were prepared and tested as previously described. Confluent cells were detached, counted and seeded at a concentration of 8.5 × 10^4 cell/mL in a 96-well culture plate (Greiner Bio One-Cell Star) 48 h before each experiment. The cells were rinsed with 100 µL PBS before adding 100 µL of the AMP solution and incubating for 2 h at 37 °C. The AMP solution was then removed and the cells were rinsed again with PBS before staining with 10% v/v alamarBlue™ Dye (Thermo Fisher Scientific, Schwerte, Germany) in DMEM for 1 h. The fluorescence of the metabolized alamarBlue™ Dye was measured in an Eon microplate reader using excitation and emission filters of 528 and 590 nm, respectively. DMEM and cells exposed to DMEM without AMPs were included as a blank reference and negative control, respectively. Four independent experiments were carried out for each AMP concentration in triplicate. To assess the percentage of viable cells compared to the control, the data were analyzed with GraphPad Prism v5.0 software using non-linear regression to fit the curve (Figure S2). The EC50 was reported as the AMP concentration that reduces cell viability by 50%.

[5] = test system: baby hamster kidney cells (BHK21); experiment: Cytotoxicity, alamarBlue, BHK-21 cells; assay type: cell-based; conditions: 2 h at 37 °C, 0.1–100 µM, alamarBlue fluorescence, non-linear fit, n ≥ 3
Description: as §2, §3

[6] = test system: Staphylococcus aureus (DSM2569); experiment: Growth inhibition assay (MIC), S. aureus; assay type: cell-based; conditions: 384-well plates, TSB, 37 °C, peptide 0.015–250 µM; growth totally inhibited; average of n ≥ 3; dash = no inhibition
Description: as §1

seven different bacteria = experiment: Antibacterial activity against all seven bacteria tested (summary); assay type: cell-based; conditions: approximate overall value
Description: as §1

[7] = test system: Pseudomonas aeruginosa (DSM50071); experiment: Growth inhibition assay (MIC), P. aeruginosa; assay type: cell-based; conditions: LB, 37 °C, highest concentration tested 250 µM
Description: as §1

Substance | MIC L. grayi (L. grayi (DSM20601)) [µM] | MIC M. luteus [1] [µM] | MIC L. monocytogenes [2] [µM] | HC10 (hemolytic concentration) (pig erythrocytes) [µM] | HC90 (hemolytic concentration) (pig erythrocytes) | HC50 (hemolytic concentration) (pig erythrocytes) [µM] | MIC E. coli (Escherichia coli (D31)) [µM] | MIC L. fleischmannii [3] [µM] | CC50 at 2 h [4] [µM] | EC10 (effective cytotoxic concentration) [5] [µM] | EC90 (effective cytotoxic concentration) [5] [µM] | MIC S. aureus [6] [µM] | MIC against all seven bacteria tested (seven different bacteria) | MIC P. aeruginosa (concentration inhibiting growth) [7] [µM] | percentage of hemolysis (pig erythrocytes)
FLSTIWNGIKGLL-NH2 [Uy192] | 15 | 15 | 8 | 35.85 | 675.22 µM | 155.6 | 15 | 4 | 52 | 1.92 | 155.90 | 15 | – | – | –
GFWKGKLWKEGVKNAIK [D12, engineered AMP based on UyCT1 but with distributed lysine residues] | – | – | – | – | – | – | – | – | – | – | – | – | totally inactive | – | –
GFWGKLWEGVKNAIKKK-NH2 [D11] | 1 | 0.25 | 2 | 39.76 | 30,984.53 µM | 1110 | 4 | 1 | 17.8 | 0.66 | 53.43 | – | ~ 1 µM | 30 | ~ 10%
IWSAIWSGIKGLL-NH2 [UyCT5] | 8 | 4 | 4 | 2.39 | 177.49 µM | 20.59 | 15 | 8 | 24.6 | 0.91 | 73.65 | 8 | – | – | 70%
GFWGKLWEGVKNAI-NH2 [UyCT1] | 4 | 1 | 4 | 31.5 | 644.46 µM | 142.5 | 4 | 4 | 17.4 | 0.65 | 52.12 | – | ~ 4 µM | 60 | –
GFWGKLWEGVKSAI-NH2 [Um3] | 4 | 2 | 8 | 70.48 | 246.84 µM | 126.2 | 15 | 4 | 63.7 | 2.359 | 191.1 | 15 | – | – | –
